One data set has as its system Lovo. Nature of the data set: MTT cytotoxicity assay, Lovo. The format is cell-based. The following applies: Homo sapiens, 96 h compound exposure, read-out: absolute IC50, Lovo. An excerpt:
(§1) Lovo: cell line derived from a metastatic site in a patient with colon cancer MCF7: human oestrogen sensitive mammary epithelial cell line PC3: human prostate cancer cell line A549: cancerous lung tissue derived cells L1210: lymphoblast cell line derived from a mouse with lymphocytic leukaemia FM3A: mammary carcinoma murine cells CEM: human T-lymphoblasts, derived from the blood of a patient with acute lymphoblastic leukaemia HeLa: epithelial cells from a patient with cervical adenocarcinoma
(§2) Anti-tumour evaluation in MCF7, LoVo, A549 and PC3 cell lines was performed by MTT assay. Compounds were prepared as 0.1-100 mM stock solutions dissolved in DMSO and stored at −20° C. Cells were seeded into 96-well microtitre plates at a density of 5×10^3 cells per well and allowed 24 hours to adhere. Decimal compound dilutions were prepared in medium immediately prior to each assay (final concentration 0.1-100 μM). Experimental medium was DMEM+10% FCS (PC3 and Lovo) or RPMI+10% heat inactivated FCS (A549 and MCF7). Following 96 h compound exposure at 37° C., 5% CO2, MTT reagent (Sigma Aldrich) was added to each well (final concentration 0.5 mg/ml). Incubation at 37° C. for 4 h allowed reduction of MTT by viable cells to an insoluble formazan product. MTT was removed and formazan solubilised by addition of 10% Triton X-100 in PBS. Absorbance was read on a Tecan Sunrise spectrophotometer at 540 nm as a measure of cell viability; thus inhibition relative to control was determined (IC50).
In general terms: Formazan colour is commonly taken as a measure of viable cells.

Data set [1] concerns human cervix carcinoma HeLa cells. Nature of the data set: Cell proliferation (Coulter count) assay, HeLa. The format is cell-based. The following applies: 120 h, cell count on day 5, read-out: absolute IC50, HeLa.
Source text: as §1
(§3) Murine leukemia L1210, human T-lymphocyte CEM, and human cervix carcinoma HeLa cells were obtained from the American Type Culture Collection (ATCC) (Rockville, Md.). All cells were maintained in Dulbecco's modified Eagle's medium (DMEM) (Invitrogen, Carlsbad, Calif.) with 10% fetal bovine serum (FBS) (Biochrom AG, Berlin, Germany), 10 mM Hepes, and 1 mM sodiumpyruvate (Invitrogen). Cells were grown at 37° C. in a humidified incubator with a gas phase of 5% CO2. Monolayer cells (HeLa and […]) were seeded in 96-well microtiter plates (Nunc, Roskilde, Denmark) at 10 000 cells/well. After 24 h, an equal volume of fresh medium containing the test compounds was added. On day 5, cells were trypsinized and counted in a Coulter counter (Analis, Suarlee, Belgium). Suspension cells (L1210, CEM) were seeded in 96-well microtiter plates (Nunc) at 60 000 cells/well in the presence of a given amount of the test compounds. The cells were allowed to proliferate for 48 h (L1210) or 72 h (CEM) and were then counted in a Coulter counter. The 50% inhibitory concentration (IC50) was defined as the compound concentration required to reduce cell proliferation by 50%. The cytostatic activity of the compounds was determined after 3 days, as outlined above.

The next data set relates to Murine leukemia L1210. Nature of the data set: Cell proliferation (Coulter count) assay, L1210. The format is cell-based. The following applies: Mus musculus, 48 h, read-out: absolute IC50, L1210.
Source text: as §1, §3

A further data set deals with human T-lymphocyte CEM. Nature of the data set: Cell proliferation (Coulter count) assay, CEM. The following applies: 72 h, read-out: absolute IC50, CEM. The class given is cell-based.
Source text: as §1, §3

In another data set the test system is FM3A. Nature of the data set: Cytotoxicity, FM3A. The format is cell-based, murine. The following applies: Mus musculus, read-out: absolute IC50, FM3A.
Source text: as §1

Another data set has as its system A549. Nature of the data set: MTT cytotoxicity assay, A549. The format is cell-based. The note with it: Homo sapiens, 96 h compound exposure, read-out: absolute IC50, A549.
Source text: as §1, §2

The subject of another data set is PC3. Nature of the data set: MTT cytotoxicity assay, PC3. The format is cell-based. The note with it: Homo sapiens, PC-3, 96 h compound exposure, read-out: absolute IC50, PC3.
Source text: as §1, §2

A further data set deals with MCF7. Nature of the data set: MTT cytotoxicity assay, MCF7. The class given is cell-based. The following applies: Homo sapiens, 96 h compound exposure, read-out: absolute IC50, MCF7.
Source text: as §1, §2

Another data set deals with KG1a cell line. Nature of the data set: Annexin V/propidium iodide cytotoxicity, KG1a unsorted. The class given is cell-based. The note with it: KG1a, versus 8-chloroadenosine or other isomers (FIG. 1, FIG. 7). Here is the method:
(§4) A further comparative analysis of the toxicity of compounds in the KG1a cell line over an extended dose range was carried out, and the relative effect assessed of the compounds on the leukaemic stem cell compartment within the KG1a cell line, across the entire dose range. Thus, experimental tests were performed on certain compounds of the present invention to assess their ability to target cancer stem cells in a leukaemic cell line. The acute myeloid leukaemia (AML) cell line, KG1a, was employed to assess the relative effect of compounds on the stem cell compartment. The KG1a cell line was selected because it manifests a minor stem cell-like compartment with a distinct immunophenotype (Lin^−/CD34^+/CD38^−/CD123^+).
(§5) Cells of the KG1a cell line were maintained in RPMI medium (Invitrogen, Paisley, UK) supplemented with 100 units/ml penicillin, 100 μg/ml streptomycin and 20% foetal calf serum. Cells were subsequently aliquoted (10^5 cells/100 μl) into 96-well plates and were incubated at 37° C. in a humidified 5% carbon dioxide atmosphere for 72 hrs in the presence of nucleoside analogues and their respective nucleotide analogues (known as ProTides) at concentrations that were experimentally determined for each series of compounds. In addition, control cultures were carried out to which no drug was added. Cells were subsequently harvested by centrifugation and were analyzed by flow cytometry using the Annexin V assay.
Cultured cells were harvested by centrifugation and then resuspended in 195 μl of calcium-rich buffer. Subsequently, 5 μl of Annexin V (Caltag Medsystems, Botolph Claydon, UK) was added to the cell suspension and cells were incubated in the dark for 10 mins prior to washing. Cells were finally resuspended in 190 μl of calcium-rich buffer together with 10 μl of propidium iodide. Apoptosis was assessed by dual-colour immunofluorescent flow cytometry as described previously. Subsequently LD50 values (the dose required to kill 50% of the cells in a culture) were calculated for each nucleoside analogue and ProTide.
(§6) The data obtained in these experiments were evaluated using one way ANOVA. All data was confirmed as Gaussian or a Gaussian approximation using the omnibus K2 test. LD50 values were calculated from the non-linear regression and line of best-fit analysis of the sigmoidal dose-response curves. All statistical analyses were performed using Graphpad Prism 6.0 software (Graphpad Software Inc., San Diego, Calif.).

The test system of data set [2] is KG1a leukaemic stem cell compartment (Lin−/CD34+/CD38−/CD123+). Nature of the data set: Leukaemic stem cell compartment in KG1a. The note with it: KG1a, compared to 8-chloroadenosine (FIG. 2, FIG. 8). The class given is cell-based. Here is the method: as §4, §5
KG1a cells were cultured for 72 hrs in the presence of a wide range of concentrations of each compound assayed. Cells were then harvested and labelled with a cocktail of anti-lineage antibodies (PE-cy7), anti-CD34 (FITC), anti-CD38 (PE) and anti-CD123 (PERCP cy5). The sub-population expressing a leukaemic stem cell (LSC) phenotype were subsequently identified and were expressed as a percentage of all viable cells left in the culture. The percentages of stem cells remaining were then plotted on a dose-response graph and the effects of the compounds were compared with 8-chloroadenosine.
as §6

The structures appear in SMILES notation. A value given as a limit tells only on which side of the number the result lay.

Consider `C[C@@H](NP(=O)(OC[C@H]1O[C@@H](n2c(Cl)nc3c(N)ncnc32)C(O)C1O)Oc1ccccc1)C(=O)OCc1ccccc1` (stereo partly drawn) [T, 5′-([(Benzyloxy-D-alanin-N-yl)-phenyl]-phosphatyl) 8-chloroadenosine], for which the IC50 (as a rule, the concentration that inhibits the measured activity by half) was in the range of 0.1 to 5 µM with Lovo; 5 to 15 µM in data set [1]; 15 to 100 µM in the data set with Murine leukemia L1210; 15 to 100 µM in the data set on human T-lymphocyte CEM; 15 to 100 µM in the data set on FM3A; 15 to 100 µM in the data set on A549. Further, the IC50 with PC3 was in the range of 0.1 to 5 µM; with MCF7, 15 to 100 µM.

As to `CC(C)[C@H](NP(=O)(OC[C@H]1O[C@@H](n2c(Cl)nc3c(N)ncnc32)C(O)C1O)Oc1ccccc1)C(=O)OCc1ccccc1` (stereo partly drawn) [AA, 5′-([(Benzyloxy-L-valin-N-yl)-phenyl]-phosphatyl) 8-chloroadenosine], the IC50 is 0.1 to 5 µM in the data set with Lovo; 5 to 15 µM in data set [1]; 15 to 100 µM in the data set with Murine leukemia L1210; 15 to 100 µM in the data set with human T-lymphocyte CEM; 15 to 100 µM with FM3A; 15 to 100 µM with A549. In addition, the IC50 in the data set on PC3 is 15 to 100 µM; in the data set on MCF7, 0.1 to 5 µM.

For the molecule `CC(C)(C)COC(=O)C(C)(C)NP(=O)(OC[C@H]1O[C@@H](n2c(Cl)nc3c(N)ncnc32)C(O)C1O)Oc1ccccc1` (some centres unmarked) [Y, 5′-([(Neopentyloxy-2,2-dimethylglycin-N-yl)-phenyl]-phosphatyl) 8-chloroadenosine], the IC50 in the data set on Lovo was 0.1 to 5 µM; in [1] it was 15 to 100 µM; in the data set with Murine leukemia L1210 it was 15 to 100 µM; with human T-lymphocyte CEM, 15 to 100 µM; in the data set on FM3A it was 15 to 100 µM; in the data set with A549, over 100 µM. In addition, the IC50 was 0.1 to 5 µM in the data set on PC3 and 15 to 100 µM in the data set with MCF7.

Take `Nc1ncnc2c1nc(Cl)n2[C@@H]1O[C@H](COP(=O)(N[C@@H](Cc2ccccc2)C(=O)OCc2ccccc2)Oc2ccccc2)C(O)C1O` (stereo partly drawn) [U, 5′-([(Benzyloxy-L-phenylalanin-N-yl)-phenyl]-phosphatyl) 8-chloroadenosine]: the IC50 in the data set on Lovo fell in the range of 0.1 to 5 µM; in [1], 0.1 to 5 µM; with Murine leukemia L1210, 15 to 100 µM; in the data set on human T-lymphocyte CEM, 5 to 15 µM; in the data set with FM3A it was 15 to 100 µM; in the data set on A549, 0.1 to 5 µM. Also, the IC50 with PC3 and with MCF7 was 0.1 to 5 µM in each case.

As for `Nc1ncnc2c1nc(Cl)n2[C@@H]1O[C@H](COP(=O)(NCC(=O)OCc2ccccc2)Oc2ccccc2)[C@@H](O)[C@H]1O` (single isomer, unassigned; isomer a) [Isomer A of Compound B], the “cytotoxic potency compared in words” value in the data set on KG1a cell line is listed as “significantly more potent”. In [2], the “targeting of leukaemic/cancer stem cells in words” value was “statistically significantly increased ability to target cancer stem cells”.

With `COC(=O)[C@H](CCSC)NP(=O)(OC[C@H]1O[C@@H](n2c(Cl)nc3c(N)ncnc32)C(O)C1O)Oc1ccccc1` (stereo partly drawn) [Z, 5′-([(Methyloxy-L-methionine-N-yl)phenyl]-phosphatyl) 8-chloroadenosine], the IC50 in the data set with Lovo was 15 to 100 µM; in data set [1] it was 15 to 100 µM; with Murine leukemia L1210 it was 15 to 100 µM; in the data set on human T-lymphocyte CEM it was 15 to 100 µM; in the data set with FM3A it was over 100 µM; in the data set with A549, over 100 µM. Further, the IC50 in the data set on PC3 and in the data set on MCF7 was 15 to 100 µM throughout.

For `CC(C)OC(=O)[C@H](C)NP(=O)(OC[C@H]1O[C@@H](n2c(Cl)nc3c(N)ncnc32)C(O)C1O)Oc1ccccc1` (stereo partly drawn) [W, 5′-([(Isopropyloxy-L-alanin-N-yl)-phenyl]-phosphatyl) 8-chloroadenosine], the IC50 in the data set on Lovo fell in the range of 0.1 to 5 µM; in data set [1] it was 15 to 100 µM; with Murine leukemia L1210, 15 to 100 µM; in the data set on human T-lymphocyte CEM, 15 to 100 µM; in the data set with FM3A, 15 to 100 µM; in the data set with A549 it was 15 to 100 µM. Also, the IC50 is 0.1 to 5 µM in the data set with PC3 and 15 to 100 µM in the data set with MCF7.

Values taken from patent publication US20190375778A1, “ADENOSINE DERIVATIVES FOR USE IN THE TREATMENT OF CANCER” (NuCana plc, priority 2016, published 2019).
